{"source": "paper PMC8533206", "about": "(Antioxidants, 2021)", "key": {"[1]": {"test_system": "PC12 cells", "assay": "Cytotoxicity over PC12 cells (MTT assay)", "assay_type": "cell-based", "details": "24 h", "description": "PC12 cells were routinely maintained in RPMI-1640 media containing 100 IU/mL penicillin, and 100 μg/mL streptomycin supplemented by 10% heat-inactivated HS, 5% FBS in a humidified incubator containing 5% CO2 and 95% air at 37 °C [25]. The cell culture media was changed every two days. To perform experiments, cells were plated on poly-D-lysine/laminin-coated 24-well plates at a density of 3 × 10^5 cells/well and incubated for at least 24 h to allow cell adhesion.\nTo examine the effects of the test compounds on cell survival, cells were incubated in low serum media (1% HS, 1% FBS, 100 IU/mL penicillin, and 100 μg/mL streptomycin) with test compounds at the concentrations of 10 and 30 μM or an equivalent volume of vehicle control (DMSO at the final concentration of 0.3%) for 24 h. The media containing test compounds was sonicated at room temperature for 30 min to assure adequate dissolution in the media. To assess the protective effects of the test compounds on 6-OHDA- or rotenone-induced cell death in PC12 cells, cells were pre-treated with the compounds or rasagiline for 4 h. The pre-treated cells were then exposed to 6-OHDA (50 μM) or rotenone (1 μM) for 24 h.\nAfter the desired treatment, cell viability was determined by MTT assay as described previously, with slight modification. Briefly, MTT was added to the cells at the final concentration of 0.5 mg/mL, followed by incubation for 3 h at 37 °C. The supernatants were carefully removed, and then 300 μL of DMSO was added to each well to dissolve formazan precipitate. The absorbance of the dissolved solution was measured at 550 nm using a microplate reader (SpectraMax M2e, Molecular Devices, Sunnyvale, CA, USA). The cell viability was presented as the percentage of the absorbance measured in the vehicle-treated control cells. […] Inhibition (%) = 100 × (Abssample − Abs6-OHDA or rotenone)/(Abscontrol − Abs6-OHDA or rotenone)"}, "[2]": {"assay": "DPPH radical scavenging activity (cell-free)", "details": "for DPPH radical scavenging activity (in words): cell-free, DPPH 150 µM", "description": "DPPH radical scavenging activities of test compounds were assessed as previously described. Briefly, the reaction mixture containing desired concentrations of test compounds and DPPH radical solution (150 µM) prepared in 95% methanol was incubated for 30 min at 37 °C. The absorbance of the mixture was measured at 520 nm in a microplate reader (SpectraMax M2e). The radical scavenging activity was calculated using the following equation:DPPH radical scavenging activity (%) = 100 × (Abscontrol − Abssample)/Abscontrol where Abscontrol and Abssample represent the absorbances in the absence and in the presence of test compounds, respectively."}, "[3]": {"target": "T1, Human recombinant MAO-A (hMAO-A) (Homo sapiens, UniProt P21397)", "T1 construct": "purchased Sigma-Aldrich; host or cells: insect cells", "T1 sequence (P21397 1-527)": "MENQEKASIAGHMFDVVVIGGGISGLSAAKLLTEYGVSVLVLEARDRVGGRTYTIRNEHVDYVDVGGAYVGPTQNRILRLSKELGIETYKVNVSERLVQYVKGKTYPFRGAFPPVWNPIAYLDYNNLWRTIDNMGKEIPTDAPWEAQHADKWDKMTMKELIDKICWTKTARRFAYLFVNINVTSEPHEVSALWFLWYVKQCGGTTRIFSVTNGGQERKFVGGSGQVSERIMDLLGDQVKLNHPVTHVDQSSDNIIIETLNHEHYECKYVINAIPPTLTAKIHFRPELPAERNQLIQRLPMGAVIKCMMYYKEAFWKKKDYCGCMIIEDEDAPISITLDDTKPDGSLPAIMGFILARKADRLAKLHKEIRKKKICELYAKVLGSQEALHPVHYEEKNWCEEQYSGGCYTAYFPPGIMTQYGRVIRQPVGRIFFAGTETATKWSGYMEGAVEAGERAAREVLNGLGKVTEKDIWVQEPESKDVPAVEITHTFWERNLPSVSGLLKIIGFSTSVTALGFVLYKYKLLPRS", "assay": "MAO-A inhibition assay (Amplex Red fluorescence, p-tyramine substrate)", "assay_type": "biochemical", "description": "The biological evaluation of the tested compounds over both MAO-A and MAO-B was performed following the previously reported method. The MAO activity was measured in relative fluorescence units (RFU) evoked by peroxidase-catalyzed oxidation of Amplex Red® to resorufin, in which H2O2 generated by MAO reaction was used as the electron donor. Human recombinant MAO-A (hMAO-A) and MAO-B (hMAO-B) enzymes expressed in insect cells were obtained from Sigma-Aldrich. The 2 μL of test compound in DMSO ([…]) was treated with 98 μL of hMAO enzyme solution in 50 mM sodium phosphate buffer (pH 7.4, final protein amounts: ~1.25 μg protein/well for MAO-A and ~2.5 μg protein/well for MAO-B) on 96-well black plate and incubated for 15 min at 37 °C. Then, 100 μL of reaction working solution which is a mixed solution of 400 μM Amplex Red® (Cayman, final concentration: 200 μM), 2 U/mL horseradish peroxidase (Sigma-Aldrich, final concentration: 1 U/mL) and 2 mM substrate (p-tyramine for MAO-A, benzylamine for MAO-B, Sigma-Aldrich, final concentration: 1 mM) in 50 mM sodium phosphate buffer (pH 7.4) were added and incubated for 20 min at 37 °C in the dark. The fluorescent intensity was quantified using a microplate reader (SpectraMax®i3, Molecular Device) with an excitation at 545 nm and an emission at 590 nm. The 50% inhibitory concentrations (IC50) of compounds were determined as the mean ± S.E.M. in triplicate from the dose-response inhibition curves using SigmaPlot® 13.0 (Systat Software Inc., San Jose, CA, USA)."}, "[4]": {"test_system": "PC12 cells", "assay": "6-OHDA-induced ROS generation in PC12 cells (H2-DCFDA)", "assay_type": "cell-based, rat", "details": "10 μM compound, 6-OHDA 50 μM 20 h", "description": "The involvement of oxidative stress in the observed reduction in cell viability was investigated using the fluorescent dye H2-DCFDA as described previously. Briefly, cells were loaded with 10 μM H2-DCFDA for 30 min at 37 °C. Subsequently, cells were exposed for 4 h to 10 μM of test compounds followed by the addition of 50 μM 6-OHDA or 1 μM rotenone for 20 h, and fluorescence was measured spectrophotometrically at 488/520 nm in a microplate reader (SpectraMax M2e). N-acetylcysteine (NAC, 5 mM) was included as a […] control for oxidative stress."}}, "note": "“Also recorded” adds a separate entry of the source.", "data": [{"compound": "COC(=O)c1ccc2c(ccn2C(=O)c2ccc(Cl)c(Cl)c2)c1", "note": "[Compound 7b, Methyl 1-(3,4-dichlorobenzoyl)-1H-indole-5-carboxylate]", "values": [{"measurement": "Cytotoxic effect on PC12 cell viability", "setting": "[1]; 10 μM", "result": "did not show any cytotoxic effects"}, {"measurement": "DPPH radical scavenging activity (in words)", "setting": "[2]", "result": "mild DPPH radical scavenging activities"}, {"measurement": "IC50", "setting": "[3]", "result": "> 100", "unit": "µM"}, {"measurement": "inhibition at 10 µM", "setting": "[3]", "result": "< 10", "unit": "%"}, {"measurement": "inhibition at 30 µM", "setting": "[3]", "result": "< 10", "unit": "%"}, {"measurement": "inhibition at 100 µM", "setting": "[3]", "result": "< 10", "unit": "%"}, {"measurement": "Effect on 6-OHDA-induced ROS generation", "setting": "[4]", "result": "significantly decreased"}]}, {"compound": "O=C(Nc1ccc(I)cc1)c1ccc2[nH]ccc2c1", "note": "[Compound 8a, N-(4-iodophenyl)-1H-indole-5-carboxamide]", "values": [{"measurement": "Cytotoxic effect on PC12 cell viability", "setting": "[1]; 10 μM", "result": "did not show any cytotoxic effects"}, {"measurement": "IC50", "setting": "[3]", "result": "> 100", "unit": "µM"}, {"measurement": "inhibition at 10 µM", "setting": "[3]", "result": 17.2, "unit": "%"}, {"measurement": "inhibition at 30 µM", "setting": "[3]", "result": 21.7, "unit": "%"}, {"measurement": "inhibition at 100 µM", "setting": "[3]", "result": 23.5, "unit": "%"}, {"measurement": "Effect on 6-OHDA-induced ROS generation", "setting": "[4]", "result": "not effective"}]}, {"compound": "O=C(Nc1ccc(Br)cc1)c1ccc2[nH]ccc2c1", "note": "[Compound 8b, N-(4-bromophenyl)-1H-indole-5-carboxamide]", "values": [{"measurement": "Cytotoxic effect on PC12 cell viability", "setting": "[1]; 10 μM", "result": "did not show any cytotoxic effects"}, {"measurement": "Cytotoxic effect on PC12 cell viability", "setting": "[1]; 30 μM", "result": "significant reduction in cell viability"}, {"measurement": "Maximal DPPH radical scavenging effect", "setting": "[2]; 30 and 100 µM", "result": "approximately 10%"}, {"measurement": "DPPH radical scavenging activity (in words)", "setting": "[2]", "result": "mild DPPH radical scavenging activity; also recorded: mild DPPH radical scavenging activities"}, {"measurement": "IC50", "setting": "[3]", "result": "> 100", "unit": "µM"}, {"measurement": "inhibition at 10 µM", "setting": "[3]", "result": 15.1, "unit": "%"}, {"measurement": "inhibition at 30 µM", "setting": "[3]", "result": 27.9, "unit": "%"}, {"measurement": "inhibition at 100 µM", "setting": "[3]", "result": 30.1, "unit": "%"}, {"measurement": "Effect on 6-OHDA-induced ROS generation", "setting": "[4]", "result": "significantly decreased"}]}, {"compound": "O=C(Nc1ccc2c(c1)OCO2)c1ccc2[nH]ccc2c1", "note": "[Compound 8e, N-(benzo[d][1,3]dioxol-5-yl)-1H-indole-5-carboxamide]", "values": [{"measurement": "Cytotoxic effect on PC12 cell viability", "setting": "[1]; 10 μM", "result": "did not show any cytotoxic effects"}, {"measurement": "DPPH radical scavenging activity (in words)", "setting": "[2]", "result": "mild DPPH radical scavenging activities"}, {"measurement": "IC50", "setting": "[3]", "result": "> 100", "unit": "µM"}, {"measurement": "inhibition at 10 µM", "setting": "[3]", "result": "< 10", "unit": "%"}, {"measurement": "inhibition at 30 µM", "setting": "[3]", "result": "< 10", "unit": "%"}, {"measurement": "inhibition at 100 µM", "setting": "[3]", "result": "< 10", "unit": "%"}, {"measurement": "Effect on 6-OHDA-induced ROS generation", "setting": "[4]", "result": "significantly decreased"}]}]}
